# Where “and” joins values, the source holds several entries; their conditions need not be identical. Equal values may be shown once. Read-outs that look alike come from different tables or passages of the source.
# Assay: Plasma pharmacokinetics of lorlatinib at steady state (LC-MS/MS, non-compartmental analysis)
# Assay type: in vivo, human
# Parameters: Vz_F / Cmax_D / AUMClast / AUMC_TAU: unit not given here
# Conditions: for Tlag: unit assumed
# Source text: Lorlatinib was isolated from human plasma by a liquid-iquid extraction procedure. […] A linear-log trapezoidal method was used [NT] A best-fit method was used to estimate terminal elimination and to extrapolate any plasma concentration versus time profiles to compute [NT].
# [1] = Cycle 1 Day 1, Cohort B2, 115 mg/m2 per dose
# [2] = Cycle 1 Day 1, Cohort A1, 45 mg/m2 per dose, individual patients
# [3] = Cycle 1 Day 1, Cohort A1, 60 mg/m2 per dose, individual patients
# [4] = Cycle 1 Day 1, Cohort A1, 75 mg/m2 per dose, individual patients
# [5] = Cycle 1 Day 1, Cohort A1, 95 mg/m2 per dose, individual patients
# [6] = Cycle 1 Day 1, Cohort A1, 115 mg/m2 per dose, individual patients
# [7] = Cycle 1 Day 1, Cohort A2, 100 mg per dose, individual patients
# [8] = Cycle 1 Day 1, Cohort A2, 150 mg per dose, individual patients
# [9] = Cycle 1 Day 1, Cohort A2, 150 mg per dose, individual patients, in ng/mL
# [10] = Cycle 1 Day 1, Cohort A2, 150 mg per dose, individual patients, in ng·h/mL (unit assumed)
# [11] = Cycle 1 Day 1, Cohort A2, 150 mg per dose, individual patients, listed as lorlatinib, in h (unit assumed)
# [12] = Cycle 1 Day 1, patient N0773, Cohort B2, 115 mg/m2 per dose, Dose 75
# [13] = Cycle 1 Day 15, Cohort A1, 95 mg/m2 per dose
# [14] = Cycle 1 Day 15, Cohort A1, 95 mg/m2 per dose, in h (unit assumed)
# [15] = Cycle 1 Day 15, Cohort A1, 115 mg/m2 per dose
# [16] = Cycle 1 Day 15, Cohort A2, 150 mg per dose
# [17] = Cycle 1 Day 15, Cohort A2, 150 mg per dose, in h (unit assumed)
# [18] = Cycle 1 Day 15, Cohort A2, 150 mg per dose, in ng·h/mL (unit assumed)
# [19] = Cycle 1 Day 15, Cohort B2, 95 mg/m2 per dose
# [20] = Cycle 1 Day 15, Cohort B2, 95 mg/m2 per dose, in h (unit assumed)
# [21] = Cycle 1 Day 15, Cohort B2, 95 mg/m2 per dose, in ng/mL
# [22] = Cycle 1 Day 15, Cohort B2, 95 mg/m2 per dose, in ng·h/mL (unit assumed)
# [23] = Cycle 1 Day 15, Cohort B2, 115 mg/m2 per dose
# [24] = Cycle 1 Day 15, Cohort A1, 45 mg/m2 per dose, individual patients
# [25] = Cycle 1 Day 15, Cohort A1, 45 mg/m2 per dose, individual patients, in h (unit assumed)
# [26] = Cycle 1 Day 15, Cohort A1, 60 mg/m2 per dose, individual patients
# [27] = Cycle 1 Day 15, Cohort A1, 60 mg/m2 per dose, individual patients, in h (unit assumed)
# [28] = Cycle 1 Day 15, Cohort A1, 75 mg/m2 per dose, individual patients
# [29] = Cycle 1 Day 15, Cohort A1, 75 mg/m2 per dose, individual patients, in h (unit assumed)
# [30] = Cycle 1 Day 15, Cohort A1, 75 mg/m2 per dose, individual patients, in ng·h/mL (unit assumed)
# [31] = Cycle 1 Day 15, Cohort A1, 95 mg/m2 per dose, individual patients
# [32] = Cycle 1 Day 15, Cohort A1, 95 mg/m2 per dose, individual patients, in h (unit assumed)
# [33] = Cycle 1 Day 15, Cohort A1, 115 mg/m2 per dose, individual patients
structure (smiles),measurement,setting,value
"C[C@H]1Oc2cc(cnc2N)-c2c(nn(C)c2C#N)CN(C)C(=O)c2ccc(F)cc21 [Lorlatinib, (10R)-7-amino-12-fluoro-2,10,16-trimethyl-15-oxo-10,15,16,17-tetrahydro-2H-8,4-(metheno)pyrazolo[4,3-h][2,5,11]-benzoxadiazacyclotetradecine-3-carbonitrile]",Tlag,"Cycle 1 Day 1, Cohort A2, 150 mg per dose",0 h
same,Tlag,"Cycle 1 Day 1, Cohort B2, 95 mg/m2 per dose",0 h
same,Tlast,[1],24 h
same,Tmax,"Cycle 1 Day 1, Cohort B2, 115 mg/m2 per dose, in h (unit assumed)",1
same,Tmax,"Cycle 1 Day 1, Cohort B2, 115 mg/m2 per dose, listed as lorlatinib, in h (unit assumed)",2
same,Tlag,[1],0 h
same,Tlast,[2],24 h
same,Tmax,"Cycle 1 Day 1, Cohort A1, 45 mg/m2 per dose, individual patients, in h (unit assumed)",2
same,Tlag,[2],0 h
same,Tlast,[3],24 h
same,Tlag,[3],0 h
same,Tlast,[4],24 h
same,Tmax,"Cycle 1 Day 1, Cohort A1, 75 mg/m2 per dose, individual patients, in h (unit assumed)",2
same,Cmax,"Cycle 1 Day 1, Cohort A1, 75 mg/m2 per dose, individual patients, in ng/mL",779
same,Tlag,[4],0 h
same,Tlast,[5],24 h
same,Tlag,[5],0 h
same,AUMClast,[6],125336.7763
same,Cmax_D,[6],11.08
same,Tlast,[6],24 h
same,Clast,"Cycle 1 Day 1, Cohort A1, 115 mg/m2 per dose, individual patients, in ng/mL",172
same,Tlag,[6],0 h
same,Tlast,[7],24 h
same,Tmax,"Cycle 1 Day 1, Cohort A2, 100 mg per dose, individual patients, in h (unit assumed)",2
same,Tlag,[7],0 h
same,AUMClast,[8],49463.3786 and 88733.21472 and 92632.60987
same,Cmax_D,[8],3.76 and 5.527 and 7.067
same,Tlast,[8],24 h
same,Tmax,"Cycle 1 Day 1, Cohort A2, 150 mg per dose, individual patients, in h (unit assumed)",2
same,Clast,[9],70.8 and 151 and 127
same,Cmax,[9],829 and 1060
same,AUCall,[10],9320 and 11097.69267
same,AUClast,[10],9320 and 11097.69267
same,MRTlast,[11],9.52 and 8.347
same,Tmax,[11],2
same,Tlag,[8],0 h
same,AUMClast,[12],89144.88493
same,Cmax_D,[12],22.13
same,Tlast,[12],24 h
same,Tlag,[12],0 h
same,AUC_TAU_%Extrap,[13],0%
same,Tlast,[13],24 h
same,Tmax,[14],1
same,Tmin,[14],0
same,Cavg,"Cycle 1 Day 15, Cohort A1, 95 mg/m2 per dose, in ng/mL",288.1
same,Tlag,[13],0 h
same,AUC_TAU_%Extrap,[15],0%
same,Tlast,[15],24 h
same,Tmin,"Cycle 1 Day 15, Cohort A1, 115 mg/m2 per dose, in h (unit assumed)",0
same,Tlag,[15],0 h
same,AUC_TAU_%Extrap,[16],0%
same,AUMC_TAU,[16],48864.79941 and 48509.22474 and 72138.31531 and 51031.1075 and 68396.67554 and 68306.96584 and 82226.35285
same,Accumulation_Index,[16],1.404 and 1.221 and 1.584 and 1.215 and 1.756 and 1.451 and 1.861
same,CLss_F,[16],30.01 and 26.36 and 19.5 and 22.81 and 21.08 and 21.41 and 18.08
same,Tlast,[16],24 h
same,Vz_F,[16],578.5 and 370.3 and 469.1 and 316.3 and 600.6 and 439.8 and 562.8
same,Tmax,[17],1
same,Tmin,[17],0
same,Cavg,"Cycle 1 Day 15, Cohort A2, 150 mg per dose, in ng/mL",208.3 and 237.1 and 320.6 and 274 and 296.5 and 291.9 and 345.7
same,AUC_TAU,[18],5690 and 7694 and 6577 and 7116 and 7005
same,AUCall,[18],5690 and 7694 and 6577 and 7116 and 7005
same,AUClast,[18],5690 and 7694 and 6577 and 7116 and 7005 and 8297
same,Tmax,"Cycle 1 Day 15, Cohort A2, 150 mg per dose, read-out: Tmax",1 h (4×) and 2 h
same,Tlag,[16],0 h
same,AUC_%Extrap_obs,[19],3.629%
same,AUC_%Extrap_pred,[19],3.558%
same,AUC_TAU_%Extrap,[19],0%
same,Accumulation_Index,[19],1.029
same,Tlast,[19],24 h
same,Vz_F,[19],73.35
same,HL_Lambda_z,[20],4.68
same,Tmax,[20],2
same,Tmin,[20],0
same,Lambda_z,"Cycle 1 Day 15, Cohort B2, 95 mg/m2 per dose, in h-1 (unit assumed)",0.1481
same,Clast_pred,[21],30.18
same,Cmax,[21],721
same,AUC_TAU,[22],5523
same,AUCall,[22],5523
same,AUClast,[22],5523
same,Tlag,[19],0 h
same,AUC_TAU_%Extrap,[23],0%
same,Tlast,[23],24 h
same,Tmax,"Cycle 1 Day 15, Cohort B2, 115 mg/m2 per dose, in h (unit assumed)",1
same,Tmax,"Cycle 1 Day 15, Cohort B2, 115 mg/m2 per dose, listed as lorlatinib, in h (unit assumed)",2
same,Tlag,[23],0 h
same,AUC_TAU_%Extrap,[24],0%
same,Tlast,[24],24 h
same,Vz_F,[24],335.3
same,Tmax,[25],2
same,Tmin,[25],0
same,Tlag,[24],0 h
same,AUC_TAU_%Extrap,[26],0%
same,Tlast,[26],24 h
same,Tmax,[27],2
same,Tmin,[27],0
same,Cmax,"Cycle 1 Day 15, Cohort A1, 60 mg/m2 per dose, individual patients, in ng/mL",343
same,Tlag,[26],0 h
same,AUC_TAU_%Extrap,[28],0%
same,Tlast,[28],24 h
same,MRTINF_obs,[29],9.338
same,MRTINF_pred,[29],9.311
same,Tmin,[29],0
same,AUCINF_obs,[30],3021
same,AUCINF_pred,[30],3018
same,Tlag,[28],0 h
same,AUC_TAU_%Extrap,[31],0%
same,Tlast,[31],24 h
same,MRTINF_obs,[32],11.95
same,MRTINF_pred,[32],11.86
same,Tmax,[32],2
same,Tmin,[32],0
same,Tlag,[31],0 h
same,AUC_%Extrap_obs,[33],23.66%
same,AUC_%Extrap_pred,[33],23.4%
same,AUC_TAU_%Extrap,[33],0%
same,AUMC_TAU,[33],68314.30452
same,Accumulation_Index,[33],1.333
same,CLss_F,[33],15.84
same,Cmax_D,[33],10.38
same,Fluctuation%,[33],351.8%
same,Fluctuation%_Tau,[33],351.8%

# — paper PMC10202811 (Nature Medicine, 2023)
